Laboratory results reported in patent US8134015B2, “Compound inhibiting in vivo phosphorous transport and medicine containing the same” (Kyowa Hakko Kirin Co., Ltd., priority 2003, dated 2012).

Columns and labels:
rat NaPi-2b = biological target: T1, rat NaPi-2b (Rattus norvegicus, UniProt Q9JJ09); experiment: Sodium-dependent phosphate uptake of Xenopus oocytes which expressed NaPi-2b (32P); assay type: cell-based; details: for IC50: Xenopus oocytes expressing rat NaPi-2b, 32P radioactive phosphorus, read-out: IC50 (phosphate uptake inhibitory activity)
T1 construct: expressed in transfected cells; host or cells: Xenopus oocytes injected with cRNA
T1 sequence (Q9JJ09 1-695): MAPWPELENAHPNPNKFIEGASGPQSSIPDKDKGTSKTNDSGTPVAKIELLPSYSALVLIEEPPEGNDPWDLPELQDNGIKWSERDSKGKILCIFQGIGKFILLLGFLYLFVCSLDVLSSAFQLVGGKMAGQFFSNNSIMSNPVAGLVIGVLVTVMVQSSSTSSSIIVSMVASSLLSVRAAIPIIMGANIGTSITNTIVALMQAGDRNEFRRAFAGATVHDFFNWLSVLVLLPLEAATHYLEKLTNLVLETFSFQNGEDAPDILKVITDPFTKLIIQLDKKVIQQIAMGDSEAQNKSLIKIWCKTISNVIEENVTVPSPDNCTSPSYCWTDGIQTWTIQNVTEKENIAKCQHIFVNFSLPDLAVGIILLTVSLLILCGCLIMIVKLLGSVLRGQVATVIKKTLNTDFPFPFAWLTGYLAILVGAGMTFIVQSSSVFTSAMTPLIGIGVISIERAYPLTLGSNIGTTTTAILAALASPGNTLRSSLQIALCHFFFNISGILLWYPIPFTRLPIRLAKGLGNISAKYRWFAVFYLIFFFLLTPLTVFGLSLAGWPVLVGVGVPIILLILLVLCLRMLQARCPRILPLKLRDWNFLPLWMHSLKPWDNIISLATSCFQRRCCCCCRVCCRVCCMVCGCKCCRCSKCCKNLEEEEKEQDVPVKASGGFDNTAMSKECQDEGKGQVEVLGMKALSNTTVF
Method in brief: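 Rat small-intestine NaPi-2b cRNA injected into Xenopus oocytes, expressed for 2 days. Sodium-dependent phosphate uptake measured with 32P; % inhibition at 300 and 100 μM taken from the same inhibition curve.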

human NaPi-2a = biological target: T2, human NaPi-2a (Homo sapiens, UniProt Q06495); experiment: Sodium-dependent phosphate uptake of Xenopus oocytes which expressed NaPi-2a (32P); assay type: cell-based; details: Xenopus oocytes expressing human NaPi-2a; for IC50: phosphate uptake, five concentration levels
T2 construct: expressed in transfected cells
T2 sequence (Q06495 1-639): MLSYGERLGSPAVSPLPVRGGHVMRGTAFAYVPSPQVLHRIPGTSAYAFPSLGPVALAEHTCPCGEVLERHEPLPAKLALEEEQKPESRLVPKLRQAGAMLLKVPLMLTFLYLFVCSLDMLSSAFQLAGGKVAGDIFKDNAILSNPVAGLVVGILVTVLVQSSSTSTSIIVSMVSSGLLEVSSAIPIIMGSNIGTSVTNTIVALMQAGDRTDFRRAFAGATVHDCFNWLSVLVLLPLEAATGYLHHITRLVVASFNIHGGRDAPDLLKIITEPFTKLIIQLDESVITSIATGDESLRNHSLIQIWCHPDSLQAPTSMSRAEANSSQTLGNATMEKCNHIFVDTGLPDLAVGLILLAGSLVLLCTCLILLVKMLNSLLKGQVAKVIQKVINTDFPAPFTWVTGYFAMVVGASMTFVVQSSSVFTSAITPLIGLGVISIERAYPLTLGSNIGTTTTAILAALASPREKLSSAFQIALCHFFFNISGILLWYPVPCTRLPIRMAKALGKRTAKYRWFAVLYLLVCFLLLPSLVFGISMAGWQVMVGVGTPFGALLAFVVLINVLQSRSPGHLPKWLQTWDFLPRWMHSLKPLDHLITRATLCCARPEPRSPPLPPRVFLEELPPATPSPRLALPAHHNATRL
Description: Experiment of Sodium-Dependent Phosphate Uptake of Xenopus oocytes which Expressed NaPi-2a
In the test, a group with the addition of choline chloride (Choline Cl) was used as a negative control for nonspecific uptake, and PFA (phosphonoformic acid) was used as a positive control for phosphate transport inhibition.

| Compound | IC50 (rat NaPi-2b) [nM] | IC50 (human NaPi-2a) [µM] | inhibition at 300 µM (rat NaPi-2b; phosphate uptake, oocytes expressing rat NaPi-2b, 300 μM, determined from inhibition curve) [%] | phosphate uptake inhibitory activity against NaPi-2a (human NaPi-2a; FIG. 3, FIG. 4) |
| --- | --- | --- | --- | --- |
| COc1ccc(C(=O)Nc2ccccc2C(=O)N/N=C/C=C/c2ccccc2)cc1OC [Compound 1, 3,4-Dimethoxy-N-[2-(3-phenyl-allylidene-hydrazinocarbonyl)-phenyl]-benzamide] | 9110 | – | – | concentration-dependent inhibitory activity |
| O=C(Nc1ccc(Br)cc1C(=O)N/N=C/c1ccc(Cl)c(C(F)(F)F)c1)c1ccc(CSc2ccncc2)cc1 [Compound 260, N-[4-Bromo-2-(4-chloro-3-trifluoromethyl-benzylidene-hydrazinocarbonyl)-phenyl]-4-(pyridin-4-ylsulfanylmethyl)-benzamide] | < 3000 | < 3 | – | – |
| O=C(Nc1ccc(Br)cc1C(=O)N/N=C/c1ccc(F)cc1)c1ccc(CSCCO)cc1 [Compound 262, N-[4-Bromo-2-(4-fluoro-benzylidene-hydrazinocarbonyl)-phenyl]-4-(2-hydroxy-ethylsulfanylmethyl)-benzamide] | 1100 | 4.42 | – | – |
| Cc1ccc(/C=N/NC(=O)c2cc(Br)ccc2NC(=O)c2ccc(CSCCO)cc2)cc1 [Compound 264, N-[4-Bromo-2-(4-methyl-benzylidene-hydrazinocarbonyl)-phenyl]-4-(2-hydroxy-ethylsulfanylmethyl)-benzamide] | < 1000 | 4.36 | – | – |
| Cc1csc(NC(=O)c2cccc(CN(CC(C)O)CC(C)O)c2)c1C(=O)N/N=C/c1ccc(Cl)c(C(F)(F)F)c1 (stereo not drawn) [Compound 591, 3-{[bis-(2-hydroxy-propyl)-amino]-methyl}-N-[3-(4-chloro-3-trifluoromethyl-benzylidene-hydrazinocarbonyl)-4-methyl-thiophen-2-yl]-benzamide] | 1010 | 4.04 | – | – |
| COc1ccc(/C=N/NC(=O)c2c(C)csc2NC(=O)c2cccc(CN(CC(C)O)CC(C)O)c2)cc1 (stereo not drawn) [Compound 592, 3-{[Bis-(2-hydroxy-propyl)-amino]-methyl}-N-[3-(4-methoxy-benzylidene-hydrazinocarbonyl)-4-methyl-thiophen-2-yl]-benzamide] | 11900 | 9.51 | – | – |
| CC(O)CN(Cc1cccc(C(=O)Nc2sc3c(c2C(=O)N/N=C/c2cccc(F)c2)CCCC3)c1)CC(C)O (stereo not drawn) [Compound 630, 3-{[Bis-(2-hydroxy-propyl)-amino]-methyl}-N-[3-(3-fluoro-benzylidene-hydrazinocarbonyl)-4,5,6,7-tetrahydro-benzo[b]thiophen-2-yl]-benzamide] | < 1000 | 3.5 | – | – |
| CC(O)CN(Cc1cccc(C(=O)Nc2sc3c(c2C(=O)N/N=C/c2ccc(Cl)c(C(F)(F)F)c2)CCCC3)c1)CC(C)O (stereo not drawn) [Compound 631, 3-{[Bis-(2-hydroxy-propyl)-amino]-methyl}-N-[3-(4-chloro-3-trifluoromethyl-benzylidene-hydrazinocarbonyl)-4,5,6,7-tetrahydro-benzo[b]thiophen-2-yl]-benzamide] | < 1000 | 2.43 | – | – |
| COc1ccc(/C=N/NC(=O)c2c(NC(=O)c3cccc(CN(CC(C)O)CC(C)O)c3)sc3c2CCCC3)cc1 (stereo not drawn) [Compound 632, 3-{[Bis-(2-hydroxy-propyl)-amino]-methyl}-N-[3-(4-methoxy-benzylidene-hydrazinocarbonyl)-4,5,6,7-tetrahydro-benzo-[b]thiophen-2-yl]-benzamide] | < 1000 | 28.7 | – | – |
| Cc1ccc(/C=N/NC(=O)c2c(NC(=O)c3cccc(CN4CCC(O)CC4)c3)sc3c2CCCC3)cc1C [Compound 633, N-[3-(3,4-Dimethyl-benzylidene-hydrazinocarbonyl)-4,5,6,7-tetrahydro-benzo[b]thiophen-2-yl]-3-(4-hydroxy-piperidin-1-ylmethyl)-benzamide] | 1190 | 13.5 | – | – |
| O=C(Nc1sc2c(c1C(=O)N/N=C/c1ccc(F)cc1)CCCC2)c1cccc(CN2CCC(O)CC2)c1 [Compound 635, N-[3-(4-Fluoro-benzylidene-hydrazinocarbonyl)-4,5,6,7-tetrahydro-benzo[b]thiophen-2-yl]-3-(4-hydroxy-piperidin-1-ylmethyl)-benzamide] | 1560 | 1.34 | – | – |
| Cc1ccc(/C=N/NC(=O)c2c(NC(=O)c3cccc(CN4CCC(CO)CC4)c3)sc3c2CCCC3)cc1C [Compound 639, N-[3-(3,4-Dimethyl-benzylidene-hydrazinocarbonyl)-4,5,6,7-tetrahydro-benzo[b]thiophen-2-yl]-3-(4-hydroxymethyl-piperidin-1-ylmethyl)-benzamide] | 1840 | 11.1 | – | – |

More lines, main results first:

| IC50 (rat NaPi-2b) [nM] | IC50 (human NaPi-2a) [µM] | inhibition at 300 µM (rat NaPi-2b; phosphate uptake, oocytes expressing rat NaPi-2b, 300 μM, determined from inhibition curve) [%] | Compound | phosphate uptake inhibitory activity against NaPi-2a (human NaPi-2a; FIG. 3, FIG. 4) |
| --- | --- | --- | --- | --- |
| < 1000 | 3.53 | – | Cc1ccc(/C=N/NC(=O)c2c(NC(=O)c3cccc(CN(CC(C)O)CC(C)O)c3)sc3c2CCCC3)cc1C (stereo not drawn) [Compound 627, 3-{[Bis-(2-hydroxy-propyl)-amino]-methyl}-N-[3-(3,4-dimethyl-benzylidene-hydrazinocarbonyl)-4,5,6,7-tetrahydro-benzo-[b]thiophen-2-yl]-benzamide] | – |
| 1290 | 3.59 | – | Cc1ccc(/C=N/NC(=O)c2c(NC(=O)c3cccc(CN(CC(C)O)CC(C)O)c3)sc3c2CCCC3)cc1 (stereo not drawn) [Compound 628, 3-{[Bis-(2-hydroxy-propyl)-amino]-methyl}-N-[3-(4-methyl-benzylidene-hydrazinocarbonyl)-4,5,6,7-tetrahydro-benzo-[b]thiophen-2-yl]-benzamide] | – |
| 3010 | 12.9 | – | CC(O)CN(Cc1cccc(C(=O)Nc2sc3c(c2C(=O)N/N=C/c2ccc(F)cc2)CCCC3)c1)CC(C)O (stereo not drawn) [Compound 629, 3-{[Bis-(2-hydroxy-propyl)-amino]-methyl}-N-[3-(4-fluoro-benzylidene-hydrazinocarbonyl)-4,5,6,7-tetrahydro-benzo[b]thiophen-2-yl]-benzamide] | – |
| 1740 | 16.9 | – | Cc1ccc(/C=N/NC(=O)c2c(NC(=O)c3cccc(CN4CCC(O)CC4)c3)sc3c2CCCC3)cc1 [Compound 634, 3-(4-Hydroxy-piperidin-1-ylmethyl)-N-[3-(4-methyl-benzylidene-hydrazinocarbonyl)-4,5,6,7-tetrahydro-benzo[b]thiophen-2-yl]-benzamide] | – |
| 3890 | 5.3 | – | O=C(Nc1sc2c(c1C(=O)N/N=C/c1cccc(F)c1)CCCC2)c1cccc(CN2CCC(O)CC2)c1 [Compound 636, N-[3-(3-Fluoro-benzylidene-hydrazinocarbonyl)-4,5,6,7-tetrahydro-benzo[b]thiophen-2-yl]-3-(4-hydroxy-piperidin-1-ylmethyl)-benzamide] | – |
| < 1000 | 0.95 | – | O=C(Nc1sc2c(c1C(=O)N/N=C/c1ccc(Cl)c(C(F)(F)F)c1)CCCC2)c1cccc(CN2CCC(O)CC2)c1 [Compound 637, N-[3-(4-Chloro-3-trifluoromethyl-benzylidene-hydrazinocarbonyl)-4,5,6,7-tetrahydro-benzo[b]thiophen-2-yl]-3-(4-hydroxy-piperidin-1-ylmethyl)-benzamide] | – |
| 3150 | 4.22 | – | COc1ccc(/C=N/NC(=O)c2c(NC(=O)c3cccc(CN4CCC(O)CC4)c3)sc3c2CCCC3)cc1 [Compound 638, 3-(4-Hydroxy-piperidin-1-ylmethyl)-N-[3-(4-methoxy-benzylidene-hydrazinocarbonyl)-4,5,6,7-tetrahydro-benzo[b]thiophen-2-yl]-benzamide] | – |
| – | – | 40.2 | CCN(CC)Cc1cccc(C(=O)Nc2ccc(Cl)cc2C(=O)NOCc2ccccc2)c1 [Compound 1077] | – |
